Several values for one entry are separate records, joined by “and”; a condition that tells them apart may be missing. Equal values may be shown once. Read-outs that look alike come from different tables or passages of the source.
How the values were obtained:
β2-adrenergic receptors = molecular target: T1, β2-adrenergic receptors (Cavia porcellus, UniProt Q8K4Z4); assay: Radioligand binding to β2-ARs, membranes from guinea-pig lung
T1 construct: membranes prepared from rat ventricle and guinea-pig lung, respectively; from tissue; host or cells: guinea-pig lung membranes
T1 sequence (Q8K4Z4 whole entry): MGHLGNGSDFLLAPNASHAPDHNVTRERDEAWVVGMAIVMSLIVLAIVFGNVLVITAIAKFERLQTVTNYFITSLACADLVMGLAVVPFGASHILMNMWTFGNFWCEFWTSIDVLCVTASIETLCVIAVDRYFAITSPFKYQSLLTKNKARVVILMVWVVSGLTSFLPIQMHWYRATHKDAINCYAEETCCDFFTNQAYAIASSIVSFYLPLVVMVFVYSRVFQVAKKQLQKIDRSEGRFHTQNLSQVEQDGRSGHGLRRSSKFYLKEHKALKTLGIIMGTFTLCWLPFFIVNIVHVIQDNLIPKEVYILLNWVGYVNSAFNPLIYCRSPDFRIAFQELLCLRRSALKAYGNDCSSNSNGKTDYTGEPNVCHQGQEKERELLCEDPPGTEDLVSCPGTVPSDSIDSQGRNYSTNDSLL
Description: (§1) The objective of this example is to present the affinities and potencies of ranolazine and its S- and R-enantiomers for β1 and β2-adrenergic receptors (ARs) in various tissues and cell lines. Using radioligand binding techniques, competition of the compounds for specific radioligand binding to β1- and β2-ARs was determined using membranes prepared from rat ventricle and guinea-pig lung, respectively.

β2-ARs = molecular target: T2, β2-ARs (Mesocricetus auratus, UniProt P04274); assay: Isoproterenol-induced cAMP accumulation in DDT1 MF-2 hamster smooth muscle cells (mostly β2-ARs); type: cell-based; details: read-out: KB (Schild), β2-ARs
T2 construct: DDT1 MF-2 hamster smooth muscles cells (expressing mostly β2-ARs); endogenous in cells; host or cells: DDT1 MF-2 hamster smooth muscle cells
T2 sequence (P04274 whole entry): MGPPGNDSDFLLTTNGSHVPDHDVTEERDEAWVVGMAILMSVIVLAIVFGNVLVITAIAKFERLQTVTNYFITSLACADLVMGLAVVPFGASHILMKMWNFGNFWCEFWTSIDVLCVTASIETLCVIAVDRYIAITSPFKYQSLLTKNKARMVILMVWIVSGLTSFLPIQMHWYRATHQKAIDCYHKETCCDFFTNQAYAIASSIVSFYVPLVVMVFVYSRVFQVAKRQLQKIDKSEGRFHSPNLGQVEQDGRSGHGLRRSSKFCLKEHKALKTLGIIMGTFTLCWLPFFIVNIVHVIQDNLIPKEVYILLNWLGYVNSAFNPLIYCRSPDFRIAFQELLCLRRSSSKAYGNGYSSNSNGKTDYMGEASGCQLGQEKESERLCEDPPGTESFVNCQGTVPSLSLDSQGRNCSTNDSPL
Description: (§2) The effect of ranolazine and its S- and R-enantiomers on cAMP accumulations in rat C6 glioma cells (expressing mostly β1-ARS) and DDT1 MF-2 hamster smooth muscles cells (expressing mostly β2-ARs) were determined. […] However, in the presence of the compounds, the concentration-response curve for the isoproterenol-induced increase in cAMP was shifted to the right with no apparent reduction in the maximal responses, indication that these compounds are competitive antagonists of β1- and β2-ARs. Using the Schild equations for multiple concentrations of the antagonist (ranolazine) or for a single concentration of the enantiomers, the KB values for ranolazine and its S- and R-enantiomers were 9.7, 8.0, and >50 μM (for β1-ARS) and 12.2, 9.0, and >50 μM (for β2-ARs). In summary, ranolazine and its S-enantiomer are competitive antagonists of β1 and β2-ARS with the S-enantiomer having the highest binding affinities of all.

[1] = test system: Female rabbit isolated hearts; assay: LV monophasic action potential duration (MAPD90) in female rabbit isolated hearts; details: for EC50: Oryctolagus cuniculus
Description: The objective of this example is to present the effects of ranolazine and the R- and S-enantiomers of ranolazine on left ventricular monophasic action potential duration (LV MAPD), regional LV dispersion of MAPD (apex-base) and arrhythmogenesis. Female rabbit isolated hearts were perfused with modified K-H solution and paced at a constant rate of 1 Hz after surgical-induced complete atrioventricular block. LV MAPs from the base and apex were measured using contact MAP electrodes.
Each animal was sedated using 6 mg/kg xylazine i.m. and 40 mg/kg ketamine i.m. and then anesthetized by a “cocktail” (ketamine 15 mg/kg+xylazine 4 mg/kg in 1.5 mL saline) i.v. via the marginal ear vein. The thorax was quickly opened. The heart was excised and placed in a modified Krebs-Henseleit (K-H) solution at room temperature. The K-H solution contained (in mmol/L): NaCl 118, KCl 2.8, KH2PO4 1.2, CaCl2 2.5, MgSO4 0.5, pyruvate 2.0, glucose 5.5, Na2EDTA 0.57 and NaHCO3 25. The solution was continuously gassed with 95% O2 and 5% CO2, and its pH was adjusted to 7.4. The aorta was rapidly catheterized and the heart was perfused by the method of Langendorff with K-H solution warmed to 36-36.5° C. at a rate of 20 mL/min with a roller pump (Gilson Minipuls3, Middleton, Wis.). Perfusion pressure was measured (with a Biopac MP 150 pressure transducer, Goleta, Calif.) from a side port of the aortic catheter. To facilitate exit of fluid from the chamber of the left ventricle (LV), the leaflets of the mitral valve were trimmed with fine spring-handled scissors. The right atrial wall was partially removed for AV node ablation to block AV conduction.
Complete AV block was induced by surgical ablation (heated) of AV nodal area. […] A bipolar Teflon-coated electrode was placed on the right ventricular septum to pace the heart. Electrical stimuli 3 msec in width and 3-fold threshold amplitude were delivered to the pacing electrode at a frequency of 1 Hz using a Grass S48 stimulator (W. Warwick, R.I.).
After initiation of ventricular pacing, a 30-40 min delay was allowed for heart rhythm and perfusion pressure to achieve a steady state, an essential experimental condition for recording a good quality monophasic action potential (MAP).
Monophasic action potentials (MAP) and ECG electrodes from Harvard Apparatus Inc. (Holliston, Mass.) were used to record left ventricular MAPs and bipolar ECG. Two MAP electrodes were placed on the epicardial ventricular free wall below the level of atrial-ventricular valves to record basal MAP and apex to record apical MAP signals, respectively. MAP electrodes were pressure-contact Ag—AgCl electrodes attached to a circular holder with springs to maintain the electrodes' contact with the LV epicardial surface. […] Signals were saved on a computer hard disk for subsequent analysis. Bipolar electrocardiogram (ECG) was generated using an isolated-heart ECG apparatus (Harvard Apparatus, Holliston, Mass.) attached to Biopac amplifier system. Coronary perfusion pressure was measured using a pressure transducer (Biopac or PowerLab pressure measuring system). […] All signals were saved on a computer hard disk for subsequent analysis.
Original MAP profiles of 3-5 consecutive beats were superimposed to get one average signal using computer software (Biopac, Goleta, Calif.) and then transferred into Microsoft Excel software and plotted to measure the duration of the MAP at the level at which repolarization is 90% completed (MAPD90).

normal SD rats = assay: Insulin levels during intravenous glucose tolerance test (IVGTT) in normal SD rats; type: in vivo, rat; details: 15 mg/kg, 30 minutes prior to glucose
Description: Each rat was subjected to an IVGTT according to the method of […] et al, Metabolism 42, (1):1-6, 1993. The rats were fasted overnight before administration of the test. One group of eleven rats was given only saline prior to glucose load while the second group of seven rats was given ranolazine prior to glucose load. Glucose was administered at time zero while ranolazine was administered 30 minutes prior to glucose at a dose of 15 mg/kg of body weight. Then, the insulin concentrations in the blood were measured at -30, 0, 2, 4, 7, 15 and 30 minutes. […] The procedure used was that described in Example 2 above.

β1-adrenergic receptors = molecular target: T3, β1-adrenergic receptors (Rattus norvegicus, UniProt P18090); assay: Radioligand binding to β1-ARs, membranes from rat ventricle
T3 construct: membranes prepared from rat ventricle and guinea-pig lung, respectively; from tissue; host or cells: rat ventricle membranes
T3 sequence (P18090 whole entry): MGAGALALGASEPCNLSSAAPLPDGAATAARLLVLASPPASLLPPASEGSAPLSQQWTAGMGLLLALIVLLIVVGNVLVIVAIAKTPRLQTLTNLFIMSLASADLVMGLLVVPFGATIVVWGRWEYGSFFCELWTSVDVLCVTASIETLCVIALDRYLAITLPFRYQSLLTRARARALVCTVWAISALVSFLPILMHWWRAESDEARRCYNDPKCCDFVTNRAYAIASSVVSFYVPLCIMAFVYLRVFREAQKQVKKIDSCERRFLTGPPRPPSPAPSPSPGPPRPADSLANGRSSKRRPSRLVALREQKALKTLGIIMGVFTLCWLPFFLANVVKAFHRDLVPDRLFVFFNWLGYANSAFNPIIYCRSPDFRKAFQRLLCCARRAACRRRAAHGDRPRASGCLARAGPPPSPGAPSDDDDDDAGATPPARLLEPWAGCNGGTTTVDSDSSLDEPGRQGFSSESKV
Description: as §1

β1-ARs = molecular target: T4, β1-ARs (Rattus norvegicus, UniProt P18090); assay: Isoproterenol-induced cAMP accumulation in rat C6 glioma cells (mostly β1-ARs); type: cell-based; details: read-out: KB (Schild), β1-ARs
T4 construct: rat C6 glioma cells (expressing mostly β1-ARS); endogenous in cells; host or cells: rat C6 glioma cells
T4 sequence (P18090 whole entry): as above
Description: as §2

[2] = paced at 1 Hz, site not stated, read-out: EC50 to prolong LV MAPD90

SMILES | Ki (β2-adrenergic receptors) | Kb (β2-ARs) | regional MAPD dispersion and PVBs or VT ([1]; 1-100 μM) | EC50 ([1]; paced at 1 Hz, read-out: EC50 to prolong LV MAPD90 (Apex)) | EC50 ([1]; paced at 1 Hz, read-out: EC50 to prolong LV MAPD90 (Base)) | induction of EADs, PVBs or VT ([1]; at any concentration) | maximal increase of apical MAPD90 above control ([1]; paced at 1 Hz, 30-100 μmol/L) | maximal increase of basal MAPD90 above control ([1]; paced at 1 Hz, 30-100 μmol/L) | insulin levels relative to baseline during IVGTT, compared to vehicle treated rats (normal SD rats) | Ki (β1-adrenergic receptors) | Kb (β1-ARs) | EC50 [1, 2] | maximal increase of MAPD90 ([1]; paced at 1 Hz, site not stated)
COc1ccccc1OCC(O)CN1CCN(CC(=O)Nc2c(C)cccc2C)CC1 (racemic) [ranolazine, (±)-N-(2,6-dimethylphenyl)-4-[2-hydroxy-3-(2-methoxyphenoxy)propyl]-1-piperazine-acetamide] | 14.8 µM | 12.2 µM | without increasing regional MAPD dispersion or eliciting premature ventricular beats (PVBs) or ventricular tachycardia (VT) | 4.8 µM | 4.3 µM | did not induce any EADs, PVBs or VT | 35±4% and 35.2±4.1% | 32±4% and 32.2±4.2% | higher | 8.6 µM | 9.7 µM | – | –
COc1ccccc1OC[C@H](O)CN1CCN(CC(=O)Nc2c(C)cccc2C)CC1 [R-ranolazine, (R)-(+)-N-(2,6-dimethylphenyl)-4-[2-hydroxy-3-(2-methoxyphenoxy)-propyl]-1-piperazineacetamide] | 39 µM | > 50 µM | – | – | – | – | – | – | higher | > 100 µM | > 50 µM | 6.4 µM | 22±5%
COc1ccccc1OC[C@@H](O)CN1CCN(CC(=O)Nc2c(C)cccc2C)CC1 [S-ranolazine, (S)-(−)-N-(2,6-dimethylphenyl)-4-[2-hydroxy-3-(2-methoxyphenoxy)-propyl]-1-piperazineacetamide] | 6.7 µM | 9 µM | – | – | – | – | – | – | not different from the vehicle treated rats | 4.8 µM | 8 µM | 5.9 µM | 28±4%
